# In patent publication US6355799B1, “Substituted benzene compounds, process for their preparation, and herbicidal and defoliant compositions containing them” (ISK Americas Incorporated, priority 1997, dated 2002):
# How the values were obtained:
# Type in all cases: in vivo
# [1] = system: redroot pigweed (Amaranthus retroflexus, AMARE); assay: Pre-emerge test, greenhouse herbicide activity screening; details: pre-emerge, 14 days after application, scale 0-100
# Text: (§1) A standard greenhouse herbicide activity screening system was used to evaluate the herbicidal efficacy and crop safety of these test compounds. Seven broadleaf weed species including redroot pigweed (Amaranthus retroflexus, AMARE, velvetleaf (Abutilon theophrasti, ABUTH), sicklepod (Cassia obtusifolia, CASOB), ivyleaf morningglory (Ipomoea hederacea, IPOHE), lambsquarters (Chenopodium album, CHEAL), common ragweed (Ambrosia artemisizfolia L., AMBEL), and cocklebur (Xanthium strumarium, XANST) were used as test species. Four grass weed species including green foxtail (Setaria viridis, SETVI), barnyardgrass (Echinochloa crus-galli, ECHCG), johnsongrass (Sorghum halepense, SORHA), and large crabgrass (Digitaria sanguinalis, DIGSA) were also used. In addition, three crop species, field corn (Zea mays L., var. Dekalb 535, CORN), soybean (Glycine max L., var. Pella 86, SOY), and is upland rice (Oryza sp., var. Tebonnet, RICE) were included.
# (§2) All plants were grown in 10 cm square plastic pots which were filled with a sandy loam soil mix. For pre-emerge tests, seeds were planted one day prior to application of the test compounds. For post-emerge tests, seeds were planted 8-21 days prior to the test to allow emergence and good foliage development prior to application of the test substances. At the time of the post-emerge application, plants of all species were usually at the 2-3 leaf stage of development.
# All test compounds Were dissolved in acetone and applied to the test units in a volume of 187 l /ha. […] Plants were arranged on a shelf so that the top of the canopy (post-emerge) or top of the soil surface (pre-emerge) was 40-45 cm below the nozzle. Pressurized air was used to force the test solution through the nozzle as it was mechanically advanced (via electrically driven chain drive) over the top of all test plants/pots. This application simulates a typical commercial field herbicide application.
# (§3) In the post-emerge test, a commercial non-ionic surfactant was also included (0.25% v/v) to enhance wetting of the leaf surfaces of target plants. Immediately after application, test units of the pre-emerge applications were watered at the soil surface to incorporate the test materials. Subsequently, these test units were bottom-watered. Post-emerge test units were always bottom-watered.
# (§4) At 14 days after application of the test materials, phytotoxicity ratings were recorded. A rating scale of 0-100 was used as previously described in Research Methods in Weed Science, 2nd edition, B. Truelove, Ed., Southern Weed Science Society, Auburn University, Auburn, Ala. 1977. Briefly, “0” corresponds to no damage and “100” corresponds to complete death of all plants in the test unit. This scale was used both to determine efficacy against weed species and damage to crop species. Herbicide activity data for various compounds of this invention, which are shown by compound No. in Tables 1-8, are shown in Tables 11 and 12.
# [2] = system: barnyardgrass (Echinochloa crus-galli, ECHCG); assay: as above; details: pre-emerge, 14 days after application, scale 0-100
# Text: as §1, §2
# (§5) All test compounds Were dissolved in acetone and applied to the test units in a volume of 187 l /ha. Test materials were applied at rates ranging from 15 g ai/ha to 1000 g ai/ha using a track sprayer equipped with a TJ8001E even flow flat fan spray nozzle. Plants were arranged on a shelf so that the top of the canopy (post-emerge) or top of the soil surface (pre-emerge) was 40-45 cm below the nozzle. Pressurized air was used to force the test solution through the nozzle as it was mechanically advanced (via electrically driven chain drive) over the top of all test plants/pots. This application simulates a typical commercial field herbicide application.
# as §3, §4
# [3] = system: green foxtail (Setaria viridis, SETVI); assay: as above; details: pre-emerge, 14 days after application, scale 0-100
# Text: as §1, §2, §5, §3, §4
# [4] = system: ivyleaf morningglory (Ipomoea hederacea, IPOHE); assay: as above; details: pre-emerge, 14 days after application, scale 0-100
# Text: as §1, §2, §5, §3, §4
# [5] = system: lambsquarters (Chenopodium album, CHEAL); assay: as above; details: pre-emerge, 14 days after application, scale 0-100
# Text: as §1, §2, §5, §3, §4
# [6] = system: large crabgrass (Digitaria sanguinalis, DIGSA); assay: as above; details: pre-emerge, 14 days after application, scale 0-100
# Text: as §1, §2, §5, §3, §4
# [7] = system: sicklepod (Cassia obtusifolia, CASOB); assay: as above; details: pre-emerge, 14 days after application, scale 0-100
# Text: as §1, §2, §5, §3, §4
# [8] = system: velvetleaf (Abutilon theophrasti, ABUTH); assay: as above; details: pre-emerge, 14 days after application, scale 0-100
# Text: as §1, §2, §5, §3, §4
# [9] = system: field corn (Zea mays L., var. Dekalb 535, CORN); assay: Pre-emerge test, crop safety; details: pre-emerge, 14 days after application, scale 0-100
# Text: as §1, §2, §5, §3, §4
# [10] = system: upland rice (Oryza sp., var. Tebonnet, RICE); assay: Pre-emerge test, crop safety; details: pre-emerge, 14 days after application, scale 0-100
# Text: as §1, §2, §5, §3, §4
# [11] = system: barnyardgrass (Echinochloa crus-galli, ECHCG); assay: Post-emerge test, greenhouse herbicide activity screening; details: post-emerge, 14 days after application, rating scale 0-100
# Text: as §1, §2, §5, §3, §4
# [12] = system: green foxtail (Setaria viridis, SETVI); assay: as above; details: post-emerge, 14 days after application, rating scale 0-100
# Text: as §1, §2, §5, §3, §4
# [13] = system: ivyleaf morningglory (Ipomoea hederacea, IPOHE); assay: as above; details: post-emerge, 14 days after application, rating scale 0-100
# Text: as §1, §2, §5, §3, §4
# [14] = system: lambsquarters (Chenopodium album, CHEAL); assay: as above; details: post-emerge, 14 days after application, rating scale 0-100
# Text: as §1, §2, §5, §3, §4
# [15] = system: large crabgrass (Digitaria sanguinalis, DIGSA); assay: as above; details: post-emerge, 14 days after application, rating scale 0-100
# Text: as §1, §2, §5, §3, §4
# [16] = system: redroot pigweed (Amaranthus retroflexus, AMARE); assay: as above; details: post-emerge, 14 days after application, rating scale 0-100
# Text: as §1, §2, §5, §3, §4
# [17] = system: sicklepod (Cassia obtusifolia, CASOB); assay: as above; details: post-emerge, 14 days after application, rating scale 0-100
# Text: as §1, §2, §5, §3, §4
# [18] = system: velvetleaf (Abutilon theophrasti, ABUTH); assay: as above; details: post-emerge, 14 days after application, rating scale 0-100
# Text: as §1, §2, §5, §3, §4
# [19] = system: field corn (Zea mays L., var. Dekalb 535, CORN); assay: Post-emerge test, crop safety; details: post-emerge, 14 days after application, rating scale 0-100
# Text: as §1, §2, §5, §3, §4
# [20] = system: upland rice (Oryza sp., var. Tebonnet, RICE); assay: Post-emerge test, crop safety; details: post-emerge, 14 days after application, rating scale 0-100
# Text: as §1, §2, §5, §3, §4
smiles,measurement,setting,value
COc1c(Cl)cc(F)c(-n2c(=O)cc(C(F)(F)F)n(C)c2=O)c1NC(=O)CCc1ccccc1C [2-129],phytotoxicity rating AMARE,[1]; 63 g ai/ha,90
same,phytotoxicity rating AMARE,[1]; 250 g ai/ha,100
same,phytotoxicity rating ECHCG,[2]; 63 g ai/ha,30
same,phytotoxicity rating ECHCG,[2]; 250 g ai/ha,80
same,phytotoxicity rating SETVI,[3]; 63 g ai/ha,90
same,phytotoxicity rating SETVI,[3]; 250 g ai/ha,100
same,phytotoxicity rating IPOHE,[4]; 63 g ai/ha,50
same,phytotoxicity rating IPOHE,[4]; 250 g ai/ha,70
same,phytotoxicity rating CHEAL,[5]; 63 g ai/ha,100
same,phytotoxicity rating CHEAL,[5]; 250 g ai/ha,100
same,phytotoxicity rating DIGSA,[6]; 63 g ai/ha,60
same,phytotoxicity rating DIGSA,[6]; 250 g ai/ha,100
same,phytotoxicity rating CASOB,[7]; 63 g ai/ha,60
same,phytotoxicity rating CASOB,[7]; 250 g ai/ha,90
same,phytotoxicity rating ABUTH,[8]; 63 g ai/ha,100
same,phytotoxicity rating ABUTH,[8]; 250 g ai/ha,100
same,phytotoxicity rating CORN (crop damage),[9]; 63 g ai/ha,50
same,phytotoxicity rating CORN (crop damage),[9]; 250 g ai/ha,90
same,phytotoxicity rating RICE (crop damage),[10]; 63 g ai/ha,40
same,phytotoxicity rating RICE (crop damage),[10]; 250 g ai/ha,80
same,ECHCG phytotoxicity rating,[11]; 63 g ai/ha,30
same,ECHCG phytotoxicity rating,[11]; 250 g ai/ha,50
same,SETVI phytotoxicity rating,[12]; 63 g ai/ha,80
same,SETVI phytotoxicity rating,[12]; 250 g ai/ha,90
same,IPOHE phytotoxicity rating,[13]; 63 g ai/ha,100
same,IPOHE phytotoxicity rating,[13]; 250 g ai/ha,100
same,CHEAL phytotoxicity rating,[14]; 63 g ai/ha,100
same,CHEAL phytotoxicity rating,[14]; 250 g ai/ha,100
same,DIGSA phytotoxicity rating,[15]; 63 g ai/ha,30
same,DIGSA phytotoxicity rating,[15]; 250 g ai/ha,70
same,AMARE phytotoxicity rating,[16]; 63 g ai/ha,100
same,AMARE phytotoxicity rating,[16]; 250 g ai/ha,100
same,CASOB phytotoxicity rating,[17]; 63 g ai/ha,80
same,CASOB phytotoxicity rating,[17]; 250 g ai/ha,100
same,ABUTH phytotoxicity rating,[18]; 63 g ai/ha,100
same,ABUTH phytotoxicity rating,[18]; 250 g ai/ha,100
same,CORN phytotoxicity rating (crop damage),[19]; 63 g ai/ha,70
same,CORN phytotoxicity rating (crop damage),[19]; 250 g ai/ha,100
same,RICE phytotoxicity rating (crop damage),[20]; 63 g ai/ha,35
same,RICE phytotoxicity rating (crop damage),[20]; 250 g ai/ha,75
COc1c(Cl)cc(F)c(-n2c(=O)cc(C(F)(F)F)n(C)c2=O)c1NC(=O)CCc1cc(C)ccc1C [2-130],phytotoxicity rating AMARE,[1]; 63 g ai/ha,40
same,phytotoxicity rating AMARE,[1]; 250 g ai/ha,100
same,phytotoxicity rating ECHCG,[2]; 63 g ai/ha,0
same,phytotoxicity rating ECHCG,[2]; 250 g ai/ha,30
same,phytotoxicity rating SETVI,[3]; 63 g ai/ha,50
same,phytotoxicity rating SETVI,[3]; 250 g ai/ha,100
same,phytotoxicity rating IPOHE,[4]; 63 g ai/ha,0
same,phytotoxicity rating IPOHE,[4]; 250 g ai/ha,30
same,phytotoxicity rating CHEAL,[5]; 63 g ai/ha,60
same,phytotoxicity rating CHEAL,[5]; 250 g ai/ha,100
same,phytotoxicity rating DIGSA,[6]; 63 g ai/ha,20
same,phytotoxicity rating DIGSA,[6]; 250 g ai/ha,90
same,phytotoxicity rating CASOB,[7]; 63 g ai/ha,0
same,phytotoxicity rating CASOB,[7]; 250 g ai/ha,40
same,phytotoxicity rating ABUTH,[8]; 63 g ai/ha,100
same,phytotoxicity rating ABUTH,[8]; 250 g ai/ha,100
same,phytotoxicity rating CORN (crop damage),[9]; 63 g ai/ha,0
same,phytotoxicity rating CORN (crop damage),[9]; 250 g ai/ha,5
same,phytotoxicity rating RICE (crop damage),[10]; 63 g ai/ha,0
same,phytotoxicity rating RICE (crop damage),[10]; 250 g ai/ha,15
same,ECHCG phytotoxicity rating,[11]; 63 g ai/ha,50
same,ECHCG phytotoxicity rating,[11]; 250 g ai/ha,60
same,SETVI phytotoxicity rating,[12]; 63 g ai/ha,60
same,SETVI phytotoxicity rating,[12]; 250 g ai/ha,70
same,IPOHE phytotoxicity rating,[13]; 63 g ai/ha,100
same,IPOHE phytotoxicity rating,[13]; 250 g ai/ha,100
same,CHEAL phytotoxicity rating,[14]; 63 g ai/ha,100
same,CHEAL phytotoxicity rating,[14]; 250 g ai/ha,100
same,DIGSA phytotoxicity rating,[15]; 63 g ai/ha,30
same,DIGSA phytotoxicity rating,[15]; 250 g ai/ha,50
same,AMARE phytotoxicity rating,[16]; 63 g ai/ha,100
same,AMARE phytotoxicity rating,[16]; 250 g ai/ha,100
same,CASOB phytotoxicity rating,[17]; 63 g ai/ha,80
same,CASOB phytotoxicity rating,[17]; 250 g ai/ha,70
same,ABUTH phytotoxicity rating,[18]; 63 g ai/ha,100
same,ABUTH phytotoxicity rating,[18]; 250 g ai/ha,100
same,CORN phytotoxicity rating (crop damage),[19]; 63 g ai/ha,10
same,CORN phytotoxicity rating (crop damage),[19]; 250 g ai/ha,30
same,RICE phytotoxicity rating (crop damage),[20]; 63 g ai/ha,20
same,RICE phytotoxicity rating (crop damage),[20]; 250 g ai/ha,25
